The test system of experiment [1] is life-extended human endometriotic cells. Put plainly: CellTiter-glo survival assay, life-extended human endometriotic cells, HCQ. As to conditions: 25 μM HCQ, 5 days, cells from two different types of lesions, p<0.0001. It is filed as cell-based. The method, then: Primary human endometriotic cells culture conditions and life extension have been previously described. These cells were derived from two different types of lesions (two independent patients) which were assessed separately as described below. Briefly, cells were maintained in MCDB 131:Medium 199 (1:1 ratio) supplemented with 8% FBS, penicillin/streptomycin, and insulin/transferrin/selenium (ITS). Cells were life-extended using SV40 Large T antigen. Retroviral particles generated in HEK293T were used to infect the primary cells. Media containing puromycin (2.5 μg/ml) was used to select primary cells resistant colonies. In addition, we obtained the T-HESC cell line, which are human endometrial stromal cells derived from a uterine myoma (ATCC, Manassas, Va.). This cell line was maintained in phenol red-free DMEM/F12 (1:1) containing 8% charcoal-dextran treated FBS, 500 ng/mL puromycin, 1% ITS+ Premix (BD Bioscience, San Jose, Calif.), and 15 mM HEPES. The cell lines used in the present study were tested to be mycoplasma negative and STR (short tandem repeat) profiled (Genetica DNA Laboratories, Cincinnati, Ohio). Endometriotic cells were seeded at 50,000 cells/well in a 24-well plate, whereas T-HESC cells were seeded at 250,000 cells/well in a 6-well plate. […] Cell viability was then assessed using CellTiter-glo reagent (Promega, Madison, Wis.).

In the next experiment the test system is LC3B-II. Put plainly: Western blot for LC3B, life-extended human endometriotic cells, HCQ. Format: cell-based. Particulars: 25 μM HCQ, 18 hours.
The subject of a further experiment is endometriotic lesions. Put plainly: Immunohistochemistry of lesions (CK8, ERα, PR). Format: in vivo, mouse. Particulars: PR immunohistochemical staining, lesions from HCQ-treated mice. How it is done:
Collected samples were immediately preserved in 10% neutral buffered formalin at the animal facility. Samples were embedded in paraffin, sectioned, and transferred to slides for hematoxylin/eosin and immunohistochemical staining. A pathologist reviewed each case and delimited the region of interest, containing epithelial and stromal cells, for each specimen. A mouse tissue microarray was prepared at the Tissue Core Facility at the Moffitt Cancer Center. The mouse tissue microarray contained a total of 113 core samples, which included 10 uterine horns and 10 ovaries from both PBS and HCQ treated mice. As control specimens for the utilized antibodies, the TMA included mouse mammary tissue, liver, small intestine, and lymph nodes from a PBS treated mouse. Lesions were analyzed from independent blocks. Slides were stained using a Leica Bond RX automated system (Leica Biosytems, Buffalo Grove, Ill.) following manufacturers instructions with proprietary reagents. Slides were deparaffinized on an automated system with Dewax Solution (Leica Biosystems). […]

Take `CCN(CCO)CCCC(C)Nc1ccnc2cc(Cl)ccc12` (stereo not drawn) [HCQ, hydroxychloroquine]: in experiment [1], the “cell survival of human endometriotic cells” value is listed as “marked reduction”. For the same compound, the “LC3B-II protein (western blot)” value with LC3B-II was “increased”. Moreover, the “stained lesions with absence of glandular components” value with endometriotic lesions is given as “four out of the seven”.

The record behind these values is US10695341B2, “Compositions and methods for treating endometriosis” (UNIVERSITY OF SOUTH FLORIDA, priority 2014, dated 2020).
